{"source": "patent EP4029501A1", "about": "“COMBINATION OF POLYAROMATIC UREA DERIVATIVES AND GLUCOCORTICOID OR HDAC INHIBITOR FOR THE TREATMENT OF DISEASES OR CONDITIONS ASSOCIATED WITH MUSCLE CELLS AND/OR SATELLITE CELLS” (Anagenesis Biotechnologies, priority 2021, dated 2022)", "key": {"[1]": {"system": "muscle progenitors derived from DMD hiPSC", "assay": "Myotube assay: total myotube area per well (alpha-actinin staining)", "format": "cell-based, human", "conditions": "for Emax / pEC50: Homo sapiens, Myotube", "how_it_was_run": "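DMD hiPSC-derived muscle progenitors (NCRM-1 background) plated at 3500 cells/well in K5 medium with 5 µM Y-27632, then exposed to compound at 1.5 nM–30 µM for 3 days at 37°C. Cells fixed on day 7, alpha-actinin-immunostained and total myotube area per well quantified; duplicates averaged, EC50 and normalized myotube area derived.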"}, "[2]": {"system": "Pax7-positive cells", "assay": "Myotube assay: Pax7-positive (satellite-like) cell quantification", "format": "cell-based, human", "parameters": "key to Pax7: (-) : Depletes the pool of cells, while positively affects the myotubes; (+) : Maintains or increases the pool of cells, with at least 1 of the highest concentration known to be cytotoxic; (++) Maintains or increases the pool of cells, without any toxicity", "conditions": "for Pax7: comparative compounds, effect on pool of Pax7-positive cells", "source_text": "The efficacy of said compound for use in treating, ameliorating, delaying, curing and/or preventing a disease or condition associated with muscle cells and/or satellite cells is positively correlated with the generation of myotubes (i.e. the increase of the area occupied by myotubes on the assay) and/or satellite cells (i.e. the increase of the number of satellite cells) in the assay after adding said compound. The generation of myotubes by the addition of said compound is expressed as the EC50 value, the concentration of said compound that corresponds with the half-maximal generation of myotubes, and the MA (normalized myotube area) value, the normalized area occupied by generated myotubes on the assay. […] Since muscle cells are formed from myotubes during myogenesis, the generation of myotubes in the assay is a good indicator of the ability of said compound to induce the formation of functional muscle cells in vivo. The number of satellite cells is measured as the percentage of Pax7 positive cells, relative to the total number of cells in the assay, as shown in Figure 3. The percentage of Pax7 is a good indicator of the ability of said compound to induce the formation of satellite cells which are able to play a role in muscle repair and regeneration in vivo.\nDMD human induced pluripotent stem cells (hereafter \"DMD hiPSC\"), generated from the NCRM-1 hiPSC WT cell line by gene editing, or WT human induced pluripotent stem cells (hereafter \"WT hiPSC\"), being NCRM-1 hiPSC wt cell line, have been differentiated according to Chal et al. 2015, 2016, to produce muscle progenitors (hereafter \"hMP\"). The hMP population contains satellite-like cells (i.e Pax7-positive cells) and satellite cells' progenies (i.e. Myogenin-positive cells).\nFigure 1 provides an example of a Myotube assay workflow. At day 0, hMP are thawed and 3.1 million cells are plated into a T75-flask coated with hESC-qualified Matrigel™ (Corning) in SkGM proliferating medium (PromoCells), supplemented with 5 µM Y-27632 (Tocris Bioscience). On day 2, SkGM proliferating medium is refreshed. On day 4, hMP are harvested and transferred into a 384-well plate coated with collagen type I at a density of 3500 cells/well in a DMEM-based medium, containing 5% of knockout serum replacement (Gibco), 1% PenStrep (Gibco), 1% MEM NEAA (Gibco) and 0.1 mM 2-mercaptoethanol (Gibco) (hereafter \"K5 medium\") and 5 µM Y-27632. Compounds to be tested are then added in the medium and incubated for 3 days at 37°C. On day 7, cells are fixed and immunostained. For example, myotubes (alpha-actinin staining) and satellite-like (Pax7 staining) cells can be analyzed for total myotube area per well or Pax7-positive cell quantification.\nDMD hMP were put in the Myotube assay according to the workflow described in Example 2.1. In particular, compound (i) was added at concentrations ranging from 1.5 nM to 30 µM, starting from day 4. hMP were cultivated for three more days in presence of compound (i), then fixed and analyzed for percentage of Pax7-positive cells and nuclei number. Duplicates of each condition were averaged.\n(-) : Depletes the pool of cells, while positively affects the myotubes; (+) : Maintains or increases the pool of cells, with at least 1 of the highest concentration known to be cytotoxic; and (++) Maintains or increases the pool of cells, without any toxicity."}, "[3]": {"conditions": "comparative compounds, same assay as Table 3, NA: non active"}, "[4]": {"conditions": "72 h, comparative compounds, same assay as Table 3, NA: non active, read-out: MA"}}, "note": "pEC50: −log10 of the molar value. Where two headings read alike, the source gives them in different places."}
{"molecule": "CC(C)n1nc(C(C)(C)C)cc1NC(=O)Nc1ccc(Oc2ccnc3[nH]c(=O)cnc23)cc1F", "note": "[(i), 1-(3-(tert-butyl)-1-isopropyl-1H-pyrazol-5-yl)-3-(2-fluoro-4-((3-oxo-3,4-dihydropyrido[2,3-b]pyrazin-8-yl)oxy)phenyl)urea]", "values": [{"measurement": "myotube surface", "setting": "[1]; DMD hMP, 10 increasing concentrations 1.5 nM to 30 µM, 3 days (figure 2)", "result": "dose-dependent increase of myotube surface"}, {"measurement": "Emax", "setting": "[1]; 72 h, efficacy, MA = normalized Myotube Area, 3 days incubation, DMD or WT cell source not given", "result": "50 to 75", "unit": "%"}, {"measurement": "pEC50", "setting": "[1]; 72 h, myogenic activity, half-maximal generation of myotubes, 10 points dose-response 1.5 nM to 30 µM, 3 days, DMD or WT cell source not given", "result": "5.30 to 6.00"}, {"measurement": "percentage of Pax7-positive cells", "setting": "[2]; DMD hMP, 10 increasing concentrations 1.5 nM to 30 µM, 3 days (figure 3)", "result": "dose-dependent increase percentage of Pax7-positive cells"}]}
{"molecule": "CNC(=O)c1cc(Oc2ccc(NC(=O)Nc3cc(C(C)(C)C)nn3-c3ccc4ncccc4c3)c(F)c2)ccn1", "note": "[Rebastinib, reference compound]", "values": [{"measurement": "pEC50", "setting": "[1]; [3]", "result": "5.30 to 6.00"}, {"measurement": "Pax7", "setting": "[2]", "result": "+"}]}
{"molecule": "CC(C)(C)c1cc(NC(=O)Nc2ccc(Oc3ccnc4[nH]c(=O)cnc34)cc2F)n(-c2ccccc2)n1", "note": "[CCT196969, reference compound]", "values": [{"measurement": "pEC50", "setting": "[1]; [3]", "result": "6.00 to 6.30"}, {"measurement": "MA", "setting": "[1]; [3]", "result": "++ (++: 50% ≤ MA <75%)"}, {"measurement": "Pax7", "setting": "[2]", "result": "+"}]}
{"molecule": "CNC(=O)c1cc(Oc2ccc(NC(=O)Nc3ccc(Cl)c(C(F)(F)F)c3)cc2)ccn1", "note": "[Sorafenib]", "values": [{"measurement": "Emax", "setting": "[1]; [4]", "result": "25 to 50", "unit": "%"}, {"measurement": "pEC50", "setting": "[1]; [3]", "result": "≤ 5.30"}, {"measurement": "Pax7", "setting": "[2]", "result": "++"}]}
{"molecule": "Cc1ccc(-n2nc(C(C)(C)C)cc2NC(=O)Nc2ccc(OCCN3CCOCC3)c3ccccc23)cc1", "note": "[BIRB-796]", "values": [{"measurement": "Emax", "setting": "[1]; [4]", "result": "≥ 75", "unit": "%"}, {"measurement": "pEC50", "setting": "[1]; [3]", "result": "≤ 5.30"}, {"measurement": "Pax7", "setting": "[2]", "result": "++"}]}
